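Five compound concentrations were applied to cells in 96-well plates for 48 hours; endpoints were derived by simple linear interpolation of the resulting dose-response curve. GI50: concentration for 50% inhibition of growth. The concentration for full growth arrest is given as TGI.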
Experiments:
Assay in all cases: DTP human tumour cell line panel, 48 h
NCI-H460 lung = test system: NCI-H460 lung
SK-MEL-5 melanoma = test system: SK-MEL-5 melanoma
U251 CNS = test system: U251 CNS
HCC-2998 colon = test system: HCC-2998 colon
MDA-MB-231 breast = test system: MDA-MB-231 breast
UO-31 renal = test system: UO-31 renal
UACC-257 melanoma = test system: UACC-257 melanoma
SK-OV-3 ovarian = test system: SK-OV-3 ovarian
SNB-19 CNS = test system: SNB-19 CNS
SK-MEL-28 melanoma = test system: SK-MEL-28 melanoma
SR leukemia = test system: SR leukemia
HT29 colon = test system: HT29 colon
OVCAR-5 ovarian = test system: OVCAR-5 ovarian
HOP-92 NSCLC = test system: HOP-92 NSCLC
A498 renal = test system: A498 renal
IGROV1 ovarian = test system: IGROV1 ovarian
MDA-MB-468 breast = test system: MDA-MB-468 breast
RXF 393 renal = test system: RXF 393 renal
K-562 leukemia = test system: K-562 leukemia
SF-539 CNS = test system: SF-539 CNS
MCF7 breast = test system: MCF7 breast
MDA-MB-435 = test system: MDA-MB-435
SN12C renal = test system: SN12C renal
COLO 205 colon = test system: COLO 205 colon
HCT-15 colon = test system: HCT-15 colon
NCI-H522 lung = test system: NCI-H522 lung
NCI-H226 lung = test system: NCI-H226 lung

SMILES: COc1ccc(N=Nc2c(N)nn3c(N)c(C#N)c(-c4ccccc4)nc23)cc1
- TGI (NCI-H460 lung): > 100 µM
- GI50 (SK-MEL-5 melanoma): 9.02 µM
- TGI (SK-MEL-5 melanoma): > 100 µM
- GI50 (U251 CNS): 3.94 µM
- TGI (U251 CNS): > 100 µM
- GI50 (HCC-2998 colon): > 100 µM
- TGI (HCC-2998 colon): > 100 µM
- GI50 (MDA-MB-231 breast): 3.66 µM
- TGI (MDA-MB-231 breast): 50.5 µM
- GI50 (UO-31 renal): 8.22 µM
- TGI (UO-31 renal): > 100 µM
- GI50 (UACC-257 melanoma): > 100 µM
- TGI (UACC-257 melanoma): > 100 µM
- GI50 (SK-OV-3 ovarian): 6.04 µM
- TGI (SK-OV-3 ovarian): > 100 µM
- GI50 (SNB-19 CNS): 5.06 µM
- TGI (SNB-19 CNS): 44.1 µM
- GI50 (SK-MEL-28 melanoma): > 100 µM
- TGI (SK-MEL-28 melanoma): > 100 µM
- GI50 (SR leukemia): > 100 µM
- TGI (SR leukemia): > 100 µM
- GI50 (HT29 colon): > 100 µM
- TGI (HT29 colon): > 100 µM
- GI50 (OVCAR-5 ovarian): > 100 µM
- TGI (OVCAR-5 ovarian): > 100 µM
- GI50 (HOP-92 NSCLC): 2.65 µM
- TGI (HOP-92 NSCLC): 52.6 µM
- GI50 (A498 renal): > 100 µM
- TGI (A498 renal): > 100 µM
- GI50 (IGROV1 ovarian): 2.6 µM
- TGI (IGROV1 ovarian): > 100 µM
- GI50 (MDA-MB-468 breast): 4.07 µM
- TGI (MDA-MB-468 breast): > 100 µM
- GI50 (RXF 393 renal): 3.17 µM
- TGI (RXF 393 renal): 12 µM
- GI50 (K-562 leukemia): > 100 µM
- TGI (K-562 leukemia): > 100 µM
- GI50 (SF-539 CNS): 3.26 µM
- TGI (SF-539 CNS): 18.6 µM
- GI50 (MCF7 breast): 1.89 µM
- TGI (MCF7 breast): > 100 µM
- GI50 (MDA-MB-435): > 100 µM
- TGI (MDA-MB-435): > 100 µM
- GI50 (SN12C renal): 5.8 µM
- TGI (SN12C renal): > 100 µM
- GI50 (COLO 205 colon): > 100 µM
- TGI (COLO 205 colon): > 100 µM
- GI50 (HCT-15 colon): > 100 µM
- TGI (HCT-15 colon): > 100 µM
- GI50 (NCI-H522 lung): 6.25 µM
- TGI (NCI-H522 lung): > 100 µM
- GI50 (NCI-H226 lung): 2.56 µM
- TGI (NCI-H226 lung): 24.8 µM

Reference: PubChem BioAssay (NCI)
